Test results: patent US10988456B2, “O-aminoheteroaryl alkynyl-containing compound, preparation method therefor, and use thereof” (SHANGHAI INSTITUTE OF MATERIA MEDICA, CHINESE ACADEMY OF …, priority 2017, dated 2021)

What was measured:
[1] = system: human gastric cancer SNU-16 xenografts; details: mouse, in vivo
Experimental: (§1) The tumor tissue in the vigorous growth period was cut into 1.5 mm^3, and inoculated subcutaneously in the right axilla of nude mice under aseptic conditions. The diameter of the xenograft in nude mice was measured with a vernier caliper. The animals were randomly divided into groups when the average tumor volume was grown to about 190 mm^3. […] The diameter of the xenograft was measured twice a week during the entire experiment, and the body weight of the mice was weighed. The tumor volume (TV) was calculated as: TV=½×a×b^2, where a and b represented length and width, respectively. The relative tumor volume (RTV) was calculated based on the measured results, and the formula was: RTV=Vt/V0, wherein V0 represented the tumor volume obtained when the mice was divided and administered (i.e., d0), and Vt represented the tumor volume at each measurement. The anti-tumor activity evaluation index was the relative tumor proliferation rate T/C (%), and the calculation formula was as follows: T/C (%)=(TRTV/CRTV)×100%, wherein TRTV was TRV in treatment group; and CRTV was RTV in negative control group.

[2] = system: human gastric cancer SNU-16 xenografts; test: Growth of subcutaneous xenografts of human gastric cancer SNU-16 in nude mice (comparative compounds study); details: for relative tumor proliferation rate T/C: day 21; for Weight (g, mean ± SD): SNU-16 tumor-bearing mice
Experimental: as §1

SMILES: CN1CCN(Cc2ccc(NC(=O)c3ccc(Cl)c(C#Cc4cccnc4)c3)cc2C(F)(F)F)CC1 [HuFGFR1-117]
- toxicity / condition of the mice (in words) [1]: dry skin, molting, and poor condition
- Relative tumor volume RTV (mean ± SD) ([2]; SNU-16, 20 mg/kg orally once a day, d0): 1.00 ± 0.00
- Relative tumor volume RTV (mean ± SD) ([2]; SNU-16, 20 mg/kg orally once a day, d3): 1.51 ± 0.37
- Relative tumor volume RTV (mean ± SD) ([2]; SNU-16, 20 mg/kg orally once a day, d7): 1.75 ± 0.47
- Relative tumor volume RTV (mean ± SD) ([2]; SNU-16, 20 mg/kg orally once a day, d10): 1.49 ± 0.14
- Relative tumor volume RTV (mean ± SD) ([2]; SNU-16, 20 mg/kg orally once a day, d14): 2.06 ± 0.38
- Relative tumor volume RTV (mean ± SD) ([2]; SNU-16, 20 mg/kg orally once a day, d17): 2.55 ± 0.55
- Relative tumor volume RTV (mean ± SD) ([2]; SNU-16, 20 mg/kg orally once a day, d21): 2.78 ± 0.58
- relative tumor proliferation rate T/C ([2]; SNU-16, 20 mg/kg orally once a day): 47.88%
- animal deaths ([2]; SNU-16, 100 mg/kg group): one mouse died on the 9th and 10th day respectively
- Relative tumor volume RTV (mean ± SD) ([2]; SNU-16, 100 mg/kg orally once a day (administration interrupted), d0): 1.00 ± 0.00
- Relative tumor volume RTV (mean ± SD) ([2]; SNU-16, 100 mg/kg orally once a day (administration interrupted), d3): 1.53 ± 0.39
- Relative tumor volume RTV (mean ± SD) ([2]; SNU-16, 100 mg/kg orally once a day (administration interrupted), d7): 0.80 ± 0.18
- Relative tumor volume RTV (mean ± SD) ([2]; SNU-16, 100 mg/kg orally once a day (administration interrupted), d10): 0.49 ± 0.08
- Relative tumor volume RTV (mean ± SD) ([2]; SNU-16, 100 mg/kg orally once a day (administration interrupted), d14): 0.51 ± 0.19
- Relative tumor volume RTV (mean ± SD) ([2]; SNU-16, 100 mg/kg orally once a day (administration interrupted), d17): 0.75 ± 0.22
- Relative tumor volume RTV (mean ± SD) ([2]; SNU-16, 100 mg/kg orally once a day (administration interrupted), d21): 0.83 ± 0.31
- relative tumor proliferation rate T/C ([2]; SNU-16, 100 mg/kg orally, administration interrupted): 14.38%
- weight of the tumor-bearing mice (in words) ([2]; SNU-16, HuFGFR1-113 at 20 mg/kg, HuFGFR1-117 dose not stated): significantly decreased
- Weight (g, mean ± SD) ([2]; 20 mg/kg orally once a day, d0): 22.5 ± 1.9 g
- Weight (g, mean ± SD) ([2]; 20 mg/kg orally once a day, d3): 23.6 ± 2.1 g
- Weight (g, mean ± SD) ([2]; 20 mg/kg orally once a day, d7): 22.7 ± 2.0 g
- Weight (g, mean ± SD) ([2]; 20 mg/kg orally once a day, d10): 22.7 ± 2.3 g
- Weight (g, mean ± SD) ([2]; 20 mg/kg orally once a day, d14): 23.6 ± 2.4 g
- Weight (g, mean ± SD) ([2]; 20 mg/kg orally once a day, d17): 24.2 ± 2.5 g
- Weight (g, mean ± SD) ([2]; 20 mg/kg orally once a day, d21): 24.7 ± 2.3 g
- Weight (g, mean ± SD) ([2]; 100 mg/kg orally once a day (administration interrupted), d0): 23.6 ± 0.7 g
- Weight (g, mean ± SD) ([2]; 100 mg/kg orally once a day (administration interrupted), d3): 24.4 ± 1.8 g
- Weight (g, mean ± SD) ([2]; 100 mg/kg orally once a day (administration interrupted), d7): 21.1 ± 1.9 g
- Weight (g, mean ± SD) ([2]; 100 mg/kg orally once a day (administration interrupted), d10): 17.6 ± 1.8 g
- Weight (g, mean ± SD) ([2]; 100 mg/kg orally once a day (administration interrupted), d14): 19.7 ± 2.0 g
- Weight (g, mean ± SD) ([2]; 100 mg/kg orally once a day (administration interrupted), d17): 22.6 ± 1.5 g
- Weight (g, mean ± SD) ([2]; 100 mg/kg orally once a day (administration interrupted), d21): 23.0 ± 2.4 g
